Molecular target: Prostacyclin receptor (Rattus norvegicus) (UniProt P43253)
Test: Binding affinity towards prostacyclin receptor on rat NG-108-15 neuroblastoma cells, using [3H]iloprost as a radioligand

Sequence of Prostacyclin receptor (Rattus norvegicus) (P43253 whole entry, looked up): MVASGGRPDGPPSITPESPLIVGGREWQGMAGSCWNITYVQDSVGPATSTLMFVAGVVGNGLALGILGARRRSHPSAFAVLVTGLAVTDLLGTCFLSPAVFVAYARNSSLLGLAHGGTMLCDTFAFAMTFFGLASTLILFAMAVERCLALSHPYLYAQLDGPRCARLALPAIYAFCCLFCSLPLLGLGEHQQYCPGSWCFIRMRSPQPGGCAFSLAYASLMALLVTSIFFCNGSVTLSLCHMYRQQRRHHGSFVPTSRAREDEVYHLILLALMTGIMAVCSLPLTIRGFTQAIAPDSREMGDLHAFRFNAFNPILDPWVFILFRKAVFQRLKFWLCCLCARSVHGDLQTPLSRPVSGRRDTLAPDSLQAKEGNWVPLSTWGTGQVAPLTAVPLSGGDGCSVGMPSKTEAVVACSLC

Compared with `c1cc(SC2CCCCC2)ccc1NC1=NCCN1`, `c1cc(Sc2ccc3c(c2)OCCO3)ccc1NC1=NCCN1` is 5-fold lower in Ki: 3.16 µM for the first, 0.631 µM for the second.

`Cc1ccc(Sc2ccc(NC3=NCCN3)cc2)cc1` and `Clc1ccc(Sc2ccc(NC3=NCCN3)cc2)cc1` are within 1.5-fold of each other in Ki: 0.1 µM for the first, 0.079 µM for the second.

Going from `Clc1ccc(Sc2ccc(CNC3=NCCN3)cc2)cc1` to `CC(C)c1ccc(Sc2ccc(NC3=NCCN3)cc2)cc1`, the Ki falls from 0.501 µM to 0.251 µM (2-fold).

First: COc1ccc(C(=O)c2ccc(NC3=NCCN3)cc2)cc1
Second: COc1ccc(-c2ccc(NC3=NCCN3)cc2)cc1
The Ki of the first is 3.2-fold lower: 0.316 µM for the first, 1 µM for the second. The first binds more tightly here.

Going from `COc1ccc(Sc2ccc(NC3=NCCCCN3)cc2)cc1` to `COc1ccc(Sc2ccc(NC3=NCCCN3)cc2)cc1`, the Ki falls from 1.26 µM to 0.079 µM (16-fold). The second binds more tightly here.

First: CC/N=C(\N)Nc1ccc(Sc2ccc(OC)cc2)cc1
Second: CC/N=C(\N)Nc1ccc(Sc2ccc(Cl)cc2)cc1
The Ki of the first is 2.5-fold lower: 0.251 µM for the first, 0.631 µM for the second. The first binds more tightly here.

Going from `COc1ccc(Cc2ccc(NC3=NCCN3)cc2)cc1` to `COc1ccc(Oc2ccc(NC3=NCCN3)cc2)cc1`, the Ki rises from 0.025 µM to 0.158 µM (6.3-fold).

First: COc1ccc(Sc2ccc(NC3=NC(C)CN3)cc2)cc1 (configuration not stated)
Second: COc1ccc(Sc2ccc(NC3=NC(C)(C)CN3)cc2)cc1
The Ki of the first is 10-fold lower: 0.063 µM for the first, 0.631 µM for the second. The first binds more tightly here.

Compared with `COc1cccc(Sc2ccc(NC3=NCCN3)cc2)c1`, `COc1ccc(Sc2cccc(NC3=NCCN3)c2)cc1` is 10-fold higher in Ki: 0.398 µM for the first, 3.98 µM for the second.

First: FC(F)(F)c1ccc(Sc2ccc(NC3=NCCN3)cc2)cc1
Second: CC(C)(C)c1ccc(Sc2ccc(NC3=NCCN3)cc2)cc1
The Ki of the first is 8-fold lower: 0.05 µM for the first, 0.398 µM for the second. The first binds more tightly here.

First: COc1ccc(Sc2ccc(C(=N)N)cc2)cc1
Second: COc1ccc(Sc2ccc(C3=NCCN3)cc2)cc1
The Ki of the first is 4-fold higher: 1.26 µM for the first, 0.316 µM for the second.

First: c1ccc(Sc2ccc(NC3=NCCN3)cc2)cc1
Second: COc1ccccc1Sc1ccc(NC2=NCCN2)cc1
The Ki of the first is 5-fold lower: 0.794 µM for the first, 3.98 µM for the second.

Going from `O=[N+]([O-])c1ccc(Sc2ccc(NC3=NCCN3)cc2)cc1` to `CCOc1ccc(Sc2ccc(NC3=NCCN3)cc2)cc1`, the Ki falls from 0.316 µM to 0.04 µM (7.9-fold). The second binds more tightly here.

`Clc1cccc(Cl)c1Sc1ccc(NC2=NCCN2)cc1` and `COc1ccc(OC)c(Sc2ccc(NC3=NCCN3)cc2)c1` are within 1.5-fold of each other in Ki: 0.631 µM for the first, 0.794 µM for the second.

Compared with `COc1ccc(Sc2ccc(CN3CCCC3)cc2)cc1`, `COc1ccc(Sc2ccc(CC3=NCCN3)cc2)cc1` is 2-fold lower in Ki: 10 µM for the first, 5.01 µM for the second. The second binds more tightly here.

Going from `c1ccc2c(c1)sc1ccc(NC3=NCCN3)cc12` to `COc1ccc(Sc2ccccc2NC2=NCCN2)cc1`, the Ki falls from 3.16 µM to 0.631 µM (5-fold).

Compared with `COc1ccc(S(=O)(=O)c2ccc(NC3=NCCN3)cc2)cc1`, `COc1ccc(N(C)c2ccc(NC3=NCCN3)cc2)cc1` is 3.2-fold higher in Ki: 0.158 µM for the first, 0.501 µM for the second. The first binds more tightly here.

Going from `CCOC(=O)c1ccc(Sc2ccc(NC3=NCCN3)cc2)cc1` to `CC(C)Oc1ccc(Sc2ccc(NC3=NCCN3)cc2)cc1`, the Ki falls from 0.05 µM to 0.032 µM (1.6-fold).

`CS(=O)(=O)Nc1ccc(Sc2ccc(NC3=NCCN3)cc2)cc1` showed a Ki of 0.079 µM.

Reference: BindingDB's records for doi:10.1016/j.bmcl.2003.10.070 (Roche Palo Alto, 2004)
